Results on 30 molecules are retold here after patent US9730940B2, “Purine inhibitors of human phosphatidylinositol 3-kinase delta” (priority 2012, dated 2017).

In the assay the target is PI3K-alpha (Homo sapiens (Human), UniProt P42336). The assay can be described thus: HTRF PI3K biochemical assay, alpha isoform. The note with it: ratio PI3K-alpha IC50 value/PI3K-delta IC50 value.
Chain of PI3K-alpha (P42336 whole entry, looked up, canonical isoform): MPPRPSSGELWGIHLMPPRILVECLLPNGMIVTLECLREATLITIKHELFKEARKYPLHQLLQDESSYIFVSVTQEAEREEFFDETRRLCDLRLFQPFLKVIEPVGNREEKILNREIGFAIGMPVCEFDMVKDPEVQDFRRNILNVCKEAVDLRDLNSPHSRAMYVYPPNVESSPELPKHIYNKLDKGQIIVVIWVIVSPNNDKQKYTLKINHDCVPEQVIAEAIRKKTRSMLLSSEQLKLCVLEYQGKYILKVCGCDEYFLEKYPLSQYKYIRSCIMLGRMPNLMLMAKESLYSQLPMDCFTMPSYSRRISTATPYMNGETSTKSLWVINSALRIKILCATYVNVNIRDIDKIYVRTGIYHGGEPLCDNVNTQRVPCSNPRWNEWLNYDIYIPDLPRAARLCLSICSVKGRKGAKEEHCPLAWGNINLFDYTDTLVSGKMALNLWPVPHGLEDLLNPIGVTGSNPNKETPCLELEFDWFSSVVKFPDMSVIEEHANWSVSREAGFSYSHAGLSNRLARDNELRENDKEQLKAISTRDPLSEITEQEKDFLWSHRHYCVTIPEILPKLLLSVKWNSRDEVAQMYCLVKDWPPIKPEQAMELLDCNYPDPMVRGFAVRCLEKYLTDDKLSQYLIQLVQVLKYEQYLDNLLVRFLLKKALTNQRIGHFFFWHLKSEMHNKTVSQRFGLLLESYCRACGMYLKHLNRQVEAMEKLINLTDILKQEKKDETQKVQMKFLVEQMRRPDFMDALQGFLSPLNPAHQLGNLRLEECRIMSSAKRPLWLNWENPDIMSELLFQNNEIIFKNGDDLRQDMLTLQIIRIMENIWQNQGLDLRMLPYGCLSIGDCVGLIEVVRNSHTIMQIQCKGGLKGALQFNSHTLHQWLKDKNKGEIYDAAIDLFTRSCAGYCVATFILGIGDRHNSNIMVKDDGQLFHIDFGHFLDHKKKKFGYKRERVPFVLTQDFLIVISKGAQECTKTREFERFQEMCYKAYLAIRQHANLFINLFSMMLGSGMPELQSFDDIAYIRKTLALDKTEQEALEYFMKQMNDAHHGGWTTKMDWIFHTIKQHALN
Chain of PI3K-alpha (P27986 whole entry partner, looked up, canonical isoform): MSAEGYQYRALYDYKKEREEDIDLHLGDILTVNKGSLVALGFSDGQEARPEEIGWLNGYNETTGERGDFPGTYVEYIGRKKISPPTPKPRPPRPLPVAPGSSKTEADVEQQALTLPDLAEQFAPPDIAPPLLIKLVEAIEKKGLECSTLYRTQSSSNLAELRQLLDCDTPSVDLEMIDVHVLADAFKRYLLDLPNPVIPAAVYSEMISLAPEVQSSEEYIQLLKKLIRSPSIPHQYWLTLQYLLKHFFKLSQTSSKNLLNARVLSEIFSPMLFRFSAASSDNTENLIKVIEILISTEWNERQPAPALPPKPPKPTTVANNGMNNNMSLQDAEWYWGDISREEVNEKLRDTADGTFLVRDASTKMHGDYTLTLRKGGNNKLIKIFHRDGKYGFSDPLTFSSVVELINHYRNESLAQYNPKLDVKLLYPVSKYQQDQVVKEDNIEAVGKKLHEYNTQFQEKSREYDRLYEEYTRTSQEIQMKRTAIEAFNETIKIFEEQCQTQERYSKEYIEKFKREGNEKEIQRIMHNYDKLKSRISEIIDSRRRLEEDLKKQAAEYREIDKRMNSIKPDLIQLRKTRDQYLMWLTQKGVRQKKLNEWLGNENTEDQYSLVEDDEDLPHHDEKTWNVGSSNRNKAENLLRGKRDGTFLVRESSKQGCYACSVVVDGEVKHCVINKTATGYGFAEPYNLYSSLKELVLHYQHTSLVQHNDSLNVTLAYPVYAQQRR
In the case of `CCC(=O)N1CC[C@H](Oc2ncnc3c2nc(-c2ccc(S(C)(=O)=O)cc2)n3C)C1` [Compound 3-39, 9-methyl-8-[4-(methyslulfonyl)phenyl]-6-{[(3S)-1-propanoylpyrrolidin-3-yl]oxy}-9H-purine], the “Relative Selectivity versus PI3Kalpha” value was more than 10. In the case of `CCC(=O)N1CC[C@H](Oc2ncnc3c2nc(-c2cnn4c2CCCC4)n3C)C1` [Compound 3-40, 9-methyl-6-{[(3S)-1-propanoylpyrrolidin-3-yl]oxy}-8-(4,5,6,7-tetrahydropyrazolo[1,5-a]pyridin-3-yl)-9H-purine] it was more than 10.

Turning to `CCn1c(-c2cnc(OC)c(NS(C)(=O)=O)c2)nc2c(O[C@H]3CCN(C(=O)C4CC4)C3)ncnc21` [Compound 3-41, N-[5-(6-{[(3S)-1-(cyclopropylcarbonyl)pyrrolidin-3-yl]oxy}-9-ethyl-9H-purin-8-yl)-2-methoxypyridin-3-yl]methanesulfonamide], the “Relative Selectivity versus PI3Kalpha” value is reported as more than 10. In the case of `CCn1c(-c2cnc(OC)c(C#N)c2)nc2c(O[C@H]3CCN(C(=O)C4CC4)C3)ncnc21` [Compound 3-42, 5-(6-{[(3S)-1-(cyclopropylcarbonyl)pyrrolidin-3-yl]oxy}-9-ethyl-9H-purin-8-yl)-2-methoxypyridine-3-carbonitrile] it was more than 10; in that of `CCn1c(-c2cnc(C(F)(F)F)nc2)nc2c(O[C@H]3CCN(C(=O)C4CC4)C3)ncnc21` [Compound 3-43, 6-{[(3S)-1-(cyclopropylcarbonyl)pyrrolidin-3-yl]oxy}-9-ethyl-8-[2-(trifluoromethyl)pyrimidin-5-yl]-9H-purine], more than 10. The same measure for `CCn1c(-c2cnc(N)c(C(F)(F)F)c2)nc2c(O[C@H]3CCN(C(=O)C4CC4)C3)ncnc21` [Compound 3-44, 5-(6-{[(3S)-1-(cyclopropylcarbonyl)pyrrolidin-3-yl]oxy}-9-ethyl-9H-purin-8-yl)-3-(trifluoromethyl)pyridin-2-amine]: more than 10. For the molecule `CCn1c(-c2cnc(N(C)C)nc2)nc2c(O[C@H]3CCN(C(=O)C4CC4)C3)ncnc21` [Compound 3-45, 5-(6-{[(3S)-1-(cyclopropylcarbonyl)pyrrolidin-3-yl]oxy}-9-ethyl-9H-purin-8-yl)-N,N-dimethylpyrimidin-2-amine], the “Relative Selectivity versus PI3Kalpha” value is on record as more than 10.

`CCC1CN(C(=O)C2CC2)CC1Oc1ncnc2c1nc(-c1cnc(C)nc1)n2CC` (stereo not drawn) [Compound 3-46, [3R,4S and 3S,4R]-6-{[1-(cyclopropylcarbonyl)-4-ethylpyrrolidin-3-yl]oxy}-9-ethyl-8-(2-methylpyrimidin-5-yl)-9H-purine]: the “Relative Selectivity versus PI3Kalpha” value was more than 10.

In the case of `CCn1c(-c2ccc(OC)cn2)nc2c(O[C@H]3CCN(C(=O)C4CC4)C3)ncnc21` [Compound 3-48, 6-{[(3S)-1-(cyclopropylcarbonyl)pyrrolidin-3-yl]oxy}-9-ethyl-8-(5-methoxypyridin-2-yl)-9H-purine], the “Relative Selectivity versus PI3Kalpha” value was more than 10. In the case of `CCn1c(-c2cnc(OC)c(C)c2)nc2c(O[C@H]3CCN(C(=O)C4CC4)C3)ncnc21` [Compound 3-49, 6-{[(3S)-1-(cyclopropylcarbonyl)pyrrolidin-3-yl]oxy}-9-ethyl-8-(6-methoxy-5-methylpyridin-3-yl)-9H-purine] it was more than 10; in that of `CCn1c(-c2ccc(OC)nc2)nc2c(O[C@H]3CCN(C(=O)C(C)C)C3)ncnc21` [Compound 3-50, 9-ethyl-8-(6-methoxypyridin-3-yl)-6-{[(3S)-1-(2-methylpropanoyl)pyrrolidin-3-yl]oxy}-9H-purine], more than 10. Regarding `CCn1c(-c2ccc(OC)nc2)nc2c(O[C@H]3CCN(C(=O)C4CC(F)(F)C4)C3)ncnc21` [Compound 3-51, 6-({(3S)-1-[(3,3-difluorocyclobutyl)carbonyl]pyr-rolidin-3-yl}oxy)-9-ethyl-8-(6-methoxypyridin-3-yl)-9H-purine], the “Relative Selectivity versus PI3Kalpha” value was more than 10. In the case of `CCn1c(-c2ccc(OC)nc2)nc2c(O[C@H]3CCN(C(=O)C4CCOCC4)C3)ncnc21` [Compound 3-52, 9-ethyl-8-(6-methoxypyridin-3-yl)-6-{[(3S)-1-(tetrahydro-2H-pyran-4-ylcarbonyl)pyrrolidin-3-yl]oxy}-9H-purine] it was more than 10.

On to `CCn1c(-c2cnc(OC)c(F)c2)nc2c(O[C@H]3CCN(C(=O)C4CC4)C3)ncnc21` [Compound 3-53, 6-{[(3S)-1-(cyclopropylcarbonyl)pyrrolidin-3-yl]oxy}-9-ethyl-8-(5-fluoro-6-methoxypyridin-3-yl)-9H-purine], for which the “Relative Selectivity versus PI3Kalpha” value is more than 10. Take `CCn1c(-c2cnc(OC)c(F)c2)nc2c(O[C@H]3CCN(C(=O)C(C)C)C3)ncnc21` [Compound 3-54, 9-ethyl-8-(5-fluoro-6-methoxypyridin-3-yl)-6-{[(3S)-1-(2-methylpropanoyl)pyrrolidin-3-yl]oxy}-9H-purine]: the “Relative Selectivity versus PI3Kalpha” value was more than 10.

Consider `CCn1c(-c2cnc(OC)c(F)c2)nc2c(O[C@H]3CCN(C(=O)C4CC(F)(F)C4)C3)ncnc21` [Compound 3-55, 6-({(3S)-1-[(3,3-difluorocyclobutyl)carbonyl]pyr-rolidin-3-yl}oxy)-9-ethyl-8-(5-fluoro-6-methoxypyridin-3-yl)-9H-purine], for which the “Relative Selectivity versus PI3Kalpha” value is more than 10. In the case of `CCn1c(-c2cnc(OC)c(F)c2)nc2c(O[C@H]3CCN(C(=O)C4CCOCC4)C3)ncnc21` [Compound 3-56, 9-ethyl-8-(5-fluoro-6-methoxypyridin-3-yl)-6-{[(3S)-1-(tetrahydro-2H-pyran-4-ylcarbonyl)pyrrolidin-3-yl]oxy}-9H-purine], the “Relative Selectivity versus PI3Kalpha” value was more than 10. The same measure for `CCn1c(-c2cnc(OC)c(F)c2)nc2c(O[C@H]3CCN(C(=O)c4ccn(C)n4)C3)ncnc21` [Compound 3-57, 9-ethyl-8-(5-fluoro-6-methoxypyridin-3-yl)-6-({(3S)-1-[(1-methyl-1H-pyrazol-3-yl)carbonyl]pyrrolidin-3-yl}oxy)-9H-purine]: more than 10; for `CCn1c(-c2cnc(OC)c(F)c2)nc2c(O[C@H]3CCN(C(=O)c4cncn4C)C3)ncnc21` [Compound 3-58, 9-ethyl-8-(5-fluoro-6-methoxypyridin-3-yl)-6-({(3S)-1-[(1-methyl-1H-imidazol-5-yl)carbonyl]pyrrolidin-3-yl}oxy)-9H-purine]: more than 10; for `CCn1c(-c2cnn3c2CCCC3)nc2c(O[C@H]3CCN(C(=O)C4CC4)C3)ncnc21` [Compound 3-59, 6-{[(3S)-1-(cyclopropylcarbonyl)pyrrolidin-3-yl]oxy}-9-ethyl-8-(4,5,6,7-tetrahydropyrazolo[1,5-a]pyridin-3-yl)-9H-purine]: more than 10. In the case of `CCn1c(-c2cnn3c2CCCC3)nc2c(O[C@H]3CCN(C(=O)C(C)C)C3)ncnc21` [Compound 3-60, 9-ethyl-6-{[(3S)-1-(2-methylpropanoyl)pyrrolidin-3-yl]oxy}-8-(4,5,6,7-tetrahydropyrazolo[1,5-a]pyridin-3-yl)-9H-purine] it was more than 10. The same measure for `CCn1ncc(-c2nc3c(O[C@H]4CCN(C(=O)C5CCOCC5)C4)ncnc3n2CC)c1C` [Compound 3-61, (S)-(3-((9-ethyl-8-(1-ethyl-5-methyl-1H-pyrazol-4-yl)-9H-purin-6-yl)oxy)pyrrolidin-1-yl)(tetrahydro-2H-pyran-4-yl)methanone]: more than 10; for `CCn1c(-c2cnc(C)nc2)nc2c(OC3CN(C(=O)C4CC4)CC34CC4)ncnc21` (stereo not drawn) [Compound 3-63, (R— or S—)-6-{[5-(cyclopropylcarbonyl)-5-azaspiro[2.4]hept-7-yl]oxy}-9-ethyl-8-(2-methylpyrimidin-5-yl)-9H-purine]: more than 10. Regarding `CCn1c(-c2cnc(C)nc2)nc2c(OC3CN(C(=O)C4CC4)CC34CC4)ncnc21` (stereo not drawn) [Compound 3-64, (R— or S—)-6-{[5-(cyclopropylcarbonyl)-5-azaspiro[2.4]hept-7-yl]oxy}-9-ethyl-8-(2-methylpyrimidin-5-yl)-9H-purine], the “Relative Selectivity versus PI3Kalpha” value is more than 10. As for `CCn1c(-c2cnc(C)nc2)nc2c(O[C@H]3CCN(S(=O)(=O)CC)C3)ncnc21` [Compound 4-8, (S)-9-ethyl-6-((1-(ethylsulfonyl)pyrrolidin-3-yl)oxy)-8-(2-methylpyrimidin-5-yl)-9H-purine], the “Relative Selectivity versus PI3Kalpha” value is on record as more than 10. The same measure for `CCn1ncc(-c2nc3c(O[C@H]4CCN(C(=O)NC(C)C)C4)ncnc3n2C)c1C` [Compound 5-3, (3S)-3-{[8-(1-ethyl-5-methyl-1H-pyrazol-4-yl)-9-methyl-9H-purin-6-yl]oxy}-N-(1-methylethyl)pyrrolidine-1-carboxamide]: more than 10; for `CCn1ncc(-c2nc3c(O[C@H]4CCN(C(=O)NC(C)(C)CC(C)(C)C)C4)ncnc3n2C)c1C` [Compound 5-4, (3S)-3-{[8-(1-ethyl-5-methyl-1H-pyrazol-4-yl)-9-methyl-9H-purin-6-yl]oxy}-N-(1,1,3,3-tetramethylbutyl)pyrrolidine-1-carboxamide]: more than 10. The same measure for `CCOC(=O)[C@H](C)NC(=O)N1CC[C@H](Oc2ncnc3c2nc(-c2cnn(CC)c2C)n3C)C1` [Compound 5-6, ethyl N-{[(3S)-3-{[8-(1-ethyl-5-methyl-1H-pyrazol-4-yl)-9-methyl-9H-purin-6-yl]oxy}pyrrolidin-1-yl]carbonyl}alaninate]: 5. The same measure for `CCNC(=O)N1CC[C@H](Oc2ncnc3c2nc(-c2cnn(CC)c2C)n3C)C1` [Compound 5-7, (S)-N-ethyl-3-((8-(1-ethyl-5-methyl-1H-pyrazol-4-yl)-9-methyl-9H-purin-6-yl]oxy}pyrrolidine-1-carboxamide]: more than 10; for `CCNC(=O)N1CC[C@H](Oc2ncnc3c2nc(-c2cnc(C)nc2)n3CC)C1` [Compound 5-8, (3S)-N-ethyl-3-{[9-ethyl-8-(2-methylpyrimidin-5-yl)-9H-purin-6-yl]oxy}pyrrolidine-1-carboxamide]: more than 10.
